Data reported in ChEMBL document CHEMBL5331070, “Design, synthesis and evaluation of N3-substituted quinazolinone derivatives as potential Bloom's Syndrome protein (BLM) helicase inhibitor for sensitization treatment of colorectal cancer” (Eur J Med Chem, 2023).
Calls of active or inactive are those of the source. The rule behind the calls is not given here.

Tests used:
[1] = biological target: T1, RecQ-like DNA helicase BLM (Homo sapiens, UniProt P54132); experiment: Displacement of thiazole orange from His-tagged BLM (unknown origin) expressed in Escherichia coli BL21 (DE3) assessed as decrease in fluorescence intensity by fluorescence based analysis
[2] = biological target: T1, RecQ-like DNA helicase BLM; experiment: Inhibition of His-tagged BLM (unknown origin) expressed in Escherichia coli BL21 (DE3) using 5'-biotin-labeled duplex forked-DNA as substrate incubated for 10 mins followed by substrate addition measured after 30 mins in presence of ATP by electrophoretic mobility shift assay
[3] = Disruption of BLM/5'-biotin-labeled duplex forked-DNA interaction incubated for 30 mins by ELISA assay
[4] = test system: HCT-116; experiment: Cytotoxicity against human HCT-116 cells assessed as inhibition of cell growth measured after 48 hrs by MTT assay; assay type: functional, cell-based; details: HCT-116, 48 h
[5] = test system: SW480; experiment: Cytotoxicity against human SW480 cells assessed as inhibition of cell growth measured after 48 hrs by MTT assay; assay type: functional, cell-based; details: SW480, 48 h
[6] = test system: RKO; experiment: Cytotoxicity against human RKO cells assessed as inhibition of cell growth measured after 48 hrs by MTT assay; assay type: functional, cell-based
[7] = Cytotoxicity against human NCM460 cells assessed as inhibition of cell growth measured after 48 hrs by MTT assay; assay type: toxicity, cell-based
[8] = biological target: T1, RecQ-like DNA helicase BLM; experiment: Displacement of thiazole orange from His-tagged BLM (unknown origin) expressed in Escherichia coli BL21 (DE3) assessed as decrease in fluorescence intensity at 10 uM by fluorescence based analysis
[9] = biological target: T1, RecQ-like DNA helicase BLM; experiment: Inhibition of BLM (unknown origin) assessed as ATP hydrolysis using 5'-biotin-labeled duplex forked-DNA as substrate incubated for 10 mins in presence of ATP by luciferase assay
[10] = test system: SW480; experiment: Inhibition of colony formation in human SW480 cells incubated for 10 days by crystal violet staining based assay; assay type: functional, cell-based; details: SW480, 240 h
[11] = test system: HCT-116; experiment: Antiproliferative activity against wild type human HCT-116 cells assessed as inhibition of cell growth incubated for 48 hrs by propidium iodide staining based high-content imaging analysis; assay type: functional; details: HCT-116, 48 h
[12] = biological target: T1, RecQ-like DNA helicase BLM; experiment: Inhibition of BLM in human HCT-116 cells co-transfected with I-SceI assessed as effect on HRR level by measuring GFP expression at 1 to 3 uM incubated for 48 hrs by propidium iodide staining based high-content imaging analysis; assay type: cell-based; details: dose 1-3 µM
[13] = biological target: T1, RecQ-like DNA helicase BLM; experiment: Inhibition of BLM in human HCT-116 cells co-transfected with DR-GFP and I-SceI plasmid assessed as decease in recruitment of BLM to DSB site at 1 to 2 uM incubated for 48 hrs by qPCR analysis; assay type: cell-based; details: dose 1-2 µM
[14] = test system: HCT-116; experiment: Induction of DNA damage in human HCT-116 cells at 3 uM incubated for 48 hrs by DAPI staining based laser scanning confocal microscopic analysis; assay type: functional, cell-based
[15] = test system: SW480; experiment: Induction of DNA damage in human SW480 cells at 3 uM incubated for 48 hrs by DAPI staining based laser scanning confocal microscopic analysis; assay type: functional, cell-based
[16] = test system: RKO; experiment: Induction of DNA damage in human RKO cells at 3 uM incubated for 48 hrs by DAPI staining based laser scanning confocal microscopic analysis; assay type: functional, cell-based
[17] = test system: HCT-116; experiment: Induction of DNA damage in human HCT-116 cells assessed as increase in gamma-H2AX level at above 0.3 uM incubated for 48 hrs by Western blotting analysis; assay type: functional, cell-based
[18] = test system: SW480; experiment: Induction of DNA damage in human SW480 cells assessed as increase in gamma-H2AX level at above 0.3 uM incubated for 48 hrs by Western blotting analysis; assay type: functional, cell-based
[19] = test system: RKO; experiment: Induction of DNA damage in human RKO cells assessed as increase in gamma-H2AX level at above 0.3 uM incubated for 48 hrs by Western blotting analysis; assay type: functional, cell-based
[20] = test system: HCT-116; experiment: Induction of cell cycle arrest in human HCT-116 cells assessed as accumulation of cells at S phase at 4 uM measured after 48 hrs by propidium iodide staining based high-content screening method; assay type: functional
[21] = test system: SW480; experiment: Induction of cell cycle arrest in human SW480 cells assessed as accumulation of cells at S phase at 4 uM measured after 48 hrs by propidium iodide staining based high-content screening method; assay type: functional
[22] = test system: HCT-116; experiment: Induction of cell cycle arrest in human HCT-116 cells assessed as accumulation of cells at G2/M phase at 4 uM measured after 48 hrs by propidium iodide staining based high-content screening method; assay type: functional
[23] = test system: SW480; experiment: Induction of cell cycle arrest in human SW480 cells assessed as accumulation of cells at G2/M phase at 4 uM measured after 48 hrs by propidium iodide staining based high-content screening method; assay type: functional
[24] = test system: RKO; experiment: Induction of cell cycle arrest in human RKO cells assessed as accumulation of cells at G2/M phase at 4 uM measured after 48 hrs by propidium iodide staining based high-content screening method; assay type: functional
[25] = test system: HCT-116; experiment: Induction of apoptosis in human HCT-116 cells assessed as apoptotic cells at 1 uM measured after 48 hrs by Annexin V-FITC/PI staining based flow cytometry (reference value: 14%); assay type: functional
[26] = test system: SW480; experiment: Induction of apoptosis in human SW480 cells assessed as apoptotic cells at 1 uM measured after 48 hrs by Annexin V-FITC/PI staining based flow cytometry (reference value: 16%); assay type: functional
[27] = test system: HCT-116; experiment: Inhibition of colony formation in human HCT-116 cells incubated for 10 days by crystal violet staining based assay; assay type: functional, cell-based; details: HCT-116, 240 h
[28] = test system: RKO; experiment: Inhibition of colony formation in human RKO cells incubated for 10 days by crystal violet staining based assay; assay type: functional, cell-based; details: 240 h
[29] = test system: HCT-116; experiment: Inhibition of cell invasion in human HCT-116 cells incubated for 48 hrs by crystal violet staining based transwell assay; assay type: functional; details: HCT-116, 48 h

T1 sequence (P54132 whole entry): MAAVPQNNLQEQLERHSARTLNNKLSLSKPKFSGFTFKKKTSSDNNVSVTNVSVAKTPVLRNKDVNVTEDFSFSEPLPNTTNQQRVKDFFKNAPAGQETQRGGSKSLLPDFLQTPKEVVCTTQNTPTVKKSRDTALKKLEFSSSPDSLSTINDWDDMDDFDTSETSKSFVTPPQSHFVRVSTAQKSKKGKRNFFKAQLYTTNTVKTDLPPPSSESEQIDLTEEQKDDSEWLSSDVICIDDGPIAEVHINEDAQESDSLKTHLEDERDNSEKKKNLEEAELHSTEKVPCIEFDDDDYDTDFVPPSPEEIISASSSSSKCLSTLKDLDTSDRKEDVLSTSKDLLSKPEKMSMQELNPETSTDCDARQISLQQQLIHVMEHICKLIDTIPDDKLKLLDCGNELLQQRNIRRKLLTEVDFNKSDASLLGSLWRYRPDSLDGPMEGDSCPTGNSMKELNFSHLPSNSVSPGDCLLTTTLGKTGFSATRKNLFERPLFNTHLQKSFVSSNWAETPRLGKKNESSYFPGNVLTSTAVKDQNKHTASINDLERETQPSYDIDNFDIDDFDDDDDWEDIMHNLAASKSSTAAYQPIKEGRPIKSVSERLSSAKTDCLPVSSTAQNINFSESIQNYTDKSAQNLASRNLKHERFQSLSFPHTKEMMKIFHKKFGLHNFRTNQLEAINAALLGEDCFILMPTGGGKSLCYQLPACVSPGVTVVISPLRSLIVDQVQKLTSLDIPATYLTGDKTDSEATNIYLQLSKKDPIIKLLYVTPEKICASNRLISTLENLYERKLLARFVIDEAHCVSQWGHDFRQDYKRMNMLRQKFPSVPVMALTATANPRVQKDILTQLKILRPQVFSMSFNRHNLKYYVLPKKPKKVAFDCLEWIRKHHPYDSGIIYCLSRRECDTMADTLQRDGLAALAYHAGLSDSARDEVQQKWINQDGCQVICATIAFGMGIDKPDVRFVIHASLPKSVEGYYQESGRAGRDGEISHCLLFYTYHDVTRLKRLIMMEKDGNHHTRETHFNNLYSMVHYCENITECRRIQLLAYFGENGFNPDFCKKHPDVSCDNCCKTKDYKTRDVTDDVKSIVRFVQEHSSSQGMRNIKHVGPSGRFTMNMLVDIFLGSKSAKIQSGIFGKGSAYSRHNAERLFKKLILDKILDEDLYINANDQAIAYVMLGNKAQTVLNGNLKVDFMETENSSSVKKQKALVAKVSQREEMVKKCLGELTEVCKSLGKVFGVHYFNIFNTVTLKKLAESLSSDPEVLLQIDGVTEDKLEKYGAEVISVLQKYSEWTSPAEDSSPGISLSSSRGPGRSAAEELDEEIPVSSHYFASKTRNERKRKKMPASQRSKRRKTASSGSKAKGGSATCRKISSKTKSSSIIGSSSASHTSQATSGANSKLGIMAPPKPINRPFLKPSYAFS

## CCN(CC)CCCNc1cc2nc(/C=C/c3ccc(C(C)C)cc3)n(CCC#N)c(=O)c2cc1F
[1]
  IC50: > 10 µM
[2]
  IC50: > 32 µM

## CCN(CC)CCCNc1cc2nc(/C=C/c3ccc(C(C)C)cc3)n(Cc3cccc(Br)c3)c(=O)c2cc1F
[2]
  IC50: 2.3 µM
[3]
  IC50: 9.9 µM
[4]
  IC50: 2.9 µM
[5]
  IC50: 1.9 µM
[6]
  IC50: 5.7 µM
[7]
  IC50 at 48 h: 15.3 µM
[8]
  Activity: inactive
[9]
  IC50: > 32 µM

## CCCCn1c(/C=C/c2ccc(C(C)C)cc2)nc2cc(NCCCN(CC)CC)c(F)cc2c1=O
[2]
  IC50: 4.8 µM
[8]
  Activity: inactive

## CCN(CC)CCCNc1cc2nc(/C=C/c3ccc(C(C)C)cc3)n(CCCN(CC)CC)c(=O)c2cc1F
[2]
  IC50: > 32 µM
[8]
  Activity: inactive

## CCN(CC)CCCNc1cc2nc(/C=C/c3ccc(C(C)C)cc3)n(CCCl)c(=O)c2cc1F
[1]
  IC50: > 10 µM
[2]
  IC50: 5.1 µM
[3]
  IC50: 7.3 µM
[4]
  IC50: 5.6 µM
[5]
  IC50: 4.5 µM
[6]
  IC50: 5.6 µM
[7]
  IC50 at 48 h: 15 µM
[9]
  IC50: > 32 µM

## CCN(CC)CCCNc1cc2nc(/C=C/c3ccc(C(C)C)cc3)n(CCc3ccccc3)c(=O)c2cc1F
[1]
  IC50: > 10 µM
[2]
  IC50: 4 µM

## CCN(CC)CCCNc1cc2nc(/C=C/c3ccc(C(C)C)cc3)n(Cc3ccccc3C(F)(F)F)c(=O)c2cc1F
[2]
  IC50: 5.3 µM
[8]
  Activity: inactive

## CCN(CC)CCCNc1cc2nc(/C=C/c3ccc(C(C)C)cc3)n(CCN(C)C)c(=O)c2cc1F
[1]
  IC50: > 10 µM
[2]
  IC50: 2.5 µM
[3]
  IC50: 4.5 µM
[4]
  IC50: 3 µM
[5]
  IC50: 10.1 µM
[6]
  IC50: 10.6 µM
[7]
  IC50 at 48 h: > 25 µM
[9]
  IC50: > 32 µM

## CCN(CC)CCCNc1cc2nc(/C=C/c3ccc(C(C)C)cc3)n(Cc3ccccc3Cl)c(=O)c2cc1F
[2]
  IC50: 9.7 µM
[8]
  Activity: inactive

## C=C(C)Cn1c(/C=C/c2ccc(C(C)C)cc2)nc2cc(NCCCN(CC)CC)c(F)cc2c1=O
[2]
  IC50: 8 µM
[8]
  Activity: inactive

## CCN(CC)CCCNc1cc2nc(/C=C/c3ccc(C(C)C)cc3)n(CC3CCOCC3)c(=O)c2cc1F
[2]
  IC50: > 32 µM
[8]
  Activity: inactive

## CCN(CC)CCCNc1cc2nc(/C=C/c3ccc(C(C)C)cc3)n(Cc3ccc(OC)cc3)c(=O)c2cc1F
[2]
  IC50: 5 µM
[8]
  Activity: inactive

## CCCn1c(/C=C/c2ccc(C(C)C)cc2)nc2cc(NCCCN(CC)CC)c(F)cc2c1=O
[1]
  IC50: > 10 µM
[2]
  IC50: > 32 µM

## CCN(CC)CCCNc1cc2nc(/C=C/c3ccc(C(C)C)cc3)n(CCCN3CCOCC3)c(=O)c2cc1F
[1]
  IC50: > 10 µM
[2]
  IC50: > 32 µM

## CCN(CC)CCCNc1cc2nc(/C=C/c3ccc(C(C)C)cc3)n(CCC(C)C)c(=O)c2cc1F
[2]
  IC50: 9.1 µM
[8]
  Activity: inactive

## CCN(CC)CCCNc1cc2nc(/C=C/c3ccc(C(C)C)cc3)n(Cc3ccccc3Br)c(=O)c2cc1F
[2]
  IC50: 2.9 µM
[8]
  Activity: inactive

## CCN(CC)CCCNc1cc2nc(/C=C/c3ccc(C(C)C)cc3)n(CCCCl)c(=O)c2cc1F
[2]
  IC50: 1.3 µM
[3]
  IC50: 4.9 µM
[4]
  IC50: 5.3 µM
[5]
  IC50: 3.45 µM
[6]
  IC50: 12.3 µM
[7]
  IC50 at 48 h: 9.6 µM
[8]
  Activity: inactive
[9]
  IC50: > 32 µM

## CCN(CC)CCCNc1cc2nc(/C=C/c3ccc(C(C)C)cc3)n(CC3CC3)c(=O)c2cc1F
[2]
  IC50: 8.3 µM
[8]
  Activity: inactive

## CCN(CC)CCCNc1cc2nc(/C=C/c3ccc(C(C)C)cc3)n(CCCOC(C)C)c(=O)c2cc1F
[1]
  IC50: > 10 µM
[2]
  IC50: 5.2 µM

## CCN(CC)CCCNc1cc2nc(/C=C/c3ccc(C(C)C)cc3)n(CCCO)c(=O)c2cc1F
[2]
  IC50: 32 µM
[8]
  Activity: inactive

## CCN(CC)CCCNc1cc2nc(/C=C/c3ccc(C(C)C)cc3)n(CC#N)c(=O)c2cc1F
[2]
  IC50: 4.3 µM
[8]
  Activity: inactive

## CCN(CC)CCCNc1cc2nc(/C=C/c3ccc(C(C)C)cc3)n(Cc3ccccc3F)c(=O)c2cc1F
[2]
  IC50: 5.2 µM
[8]
  Activity: inactive

## CCCCCn1c(/C=C/c2ccc(C(C)C)cc2)nc2cc(NCCCN(CC)CC)c(F)cc2c1=O
[2]
  IC50: 3.7 µM
[8]
  Activity: inactive

## CCN(CC)CCCNc1cc2nc(/C=C/c3ccc(C(C)C)cc3)n(Cc3ccccc3)c(=O)c2cc1F
[1]
  IC50: > 10 µM
[2]
  IC50: 5.8 µM

## CCN(CC)CCCNc1cc2nc(/C=C/c3ccc(C(C)C)cc3)n(Cc3ccc(Br)cc3)c(=O)c2cc1F
[10]
  IC50: 0.6 µM
[2]
  IC50: 0.8 µM
[3]
  IC50: 2.3 µM
[4]
  IC50: 2.8 µM
[5]
  IC50: 2.2 µM
[6]
  IC50: 5.4 µM
[7]
  IC50 at 48 h: 15.6 µM
[8]
  Activity: inactive
[9]
  IC50: > 32 µM
[11]
  IC50: 1.9 µM
[12]
  inhibition: Active
[13]
  inhibition: Active
[14]
  Activity: Active
[15]
  Activity: Active
[16]
  Activity: Active
[17]
  Activity: Active
[18]
  Activity: Active
[19]
  Activity: Active
[20]
  Activity: 54%
[21]
  Activity: 58%
[22]
  Activity: 20%
[23]
  Activity: 19%
[24]
  Activity: 25%
[25]
  Activity: 35%
[26]
  Activity: 68%
[27]
  IC50: 0.6 µM
[28]
  IC50: 0.7 µM
[29]
  IC50: 1 µM

## CCN(CC)CCCNc1cc2nc(/C=C/c3ccc(C(C)C)cc3)n(CCOC(C)=O)c(=O)c2cc1F
[1]
  IC50: > 10 µM
[2]
  IC50: > 32 µM
